Test results taken from PMC2586329 (Biochemistry, 2008).
Where two headings read alike, the source gives them in different places.

How the values were obtained:
ferrous EcDosH = conditions: cited from earlier work
full-length EcDos = conditions: pH 8; cited from earlier work
ferric EcDosH = ferric EcDosH (Escherichia coli, UniProt P76129)
EcDosH = conditions: cited from earlier work
EcDos = conditions: cited from earlier work

Sequence of ferric EcDosH (P76129 1-139): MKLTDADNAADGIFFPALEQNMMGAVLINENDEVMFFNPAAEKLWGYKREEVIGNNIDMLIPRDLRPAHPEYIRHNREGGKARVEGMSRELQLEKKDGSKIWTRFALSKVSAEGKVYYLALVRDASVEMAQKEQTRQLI

| Structure (SMILES) | association rate constant (ferrous EcDosH; pH 7) [M⁻¹ s⁻¹] | association rate constant (ferrous EcDosH; pH 8) [M⁻¹ s⁻¹] | association rate constant (full-length EcDos) [M⁻¹ s⁻¹] | effect on the heme at high hydrogen peroxide concentrations (ferric EcDosH) | affinity for binding (EcDosH) | affinity for binding (EcDos) |
| --- | --- | --- | --- | --- | --- | --- |
| [C-]#[O+] [CO] | 1100 | 7800 | 810 | – | – | – |
| OO [H2O2, hydrogen peroxide] | – | – | – | oxidative degradation of the heme is observed | – | – |
| O=O [O2] | 2600 | 31000 | 1900 | – | – | – |
| [N-]=[N+]=[N-] [azide] | – | – | – | – | very low affinities | very low affinities |
| F [fluoride] | – | – | – | – | very low affinities | very low affinities |
| c1c[nH]cn1 [imidazole] | – | – | – | – | very low affinities | very low affinities |
